# Like-named read-outs stand apart in the source and are kept apart here.
# System: phosphorylated fos-GHRct (fos-GHRct/Jak2 signaling)
# Test: Cell based primary screen: immune fluorescence (anti-GHR, anti-pY, anti-pJak2, anti-pSTAT5) of fos-GHRct-transfected γ2A iJak2 cells
# Parameters: species or system human
# Details: for phosphorylation of STAT5 (pSTAT5) / phosphorylation of fos-pGHRct (pY) / phosphorylation of the active site of Jak2 (p1007/1008): concentration curves, Fig S10
# Procedure: Drug handling and cell-based assays are detailed in Supplementary Data 1 , automation. High-Content StratoMineR ([35]). After incubation with the compounds, the cells were fixed and the fluorescence (anti-GHR, anti-pY, anti-pJak2, anti-pSTAT5) was quantitated.
# As it was unknown whether the GH/IGF1 axis is druggable, we designed a broad strategy based on our previous studies in which soluble fos-zipped GHR cytosolic tails (fos-GHRct) can serve as signaling complexes if co-expressed with Jak ([32], [39]). Fos-GHRct expressed without Jak2 is immediately degraded by the ubiquitin pathway. Phosphorylated fos-GHRct (fos-pGHRct) detaches from Jak2 and unzips. Only unzipped fos-pGHRct are protected from proteasomal degradation and accumulate in the cell. […] For 6 scenarios the signal will be decreased: (1) inhibition of Jak2 kinase activity, (2) inhibition of fos-GHRct expression, (3) inhibition of the fos-GHRct : Jak2 interaction, (4) increased degradation of fos-pGHRct, (5) increased degradation of Jak2, and (6) dephosphorylation of fos-pGHRct ([32], [39]).
# Figure 1 Diagram of the primary screen. […] If fos-GHRct and Jak2 bind via FERM and box-1, Jak2 gets activated and phosphorylates itself, the dimerized fos-GHRct and STAT5b. After phosphorylation of fos-GHRct, Jak2 and STAT5, the complex dissociates. As fos-pGHRct is protease-resistant, it accumulates in the cells. Unphosphorylated fos-GHRct is rapidly degraded. Steady state levels of fos-pGHRct are lower if one of the 6 scenarios is valid. The cell-based assay was performed in γ2A cells carrying inducible Jak2 (iJak2) or binding-deficient iJak2 Y119E (as control) ( Figure 2 ). […]
# 1. Cell based primary screen
# The assay was based on Fos-zippered GHR cytosolic tails (fos-GHRct) subsequently acting […]
# Fig S1A. Immune Fluorescence staining of γ2a Fig S1B. Immune Fluorescence staining of γ2a monoclonal cell line stably transfected with an monoclonal cell line stably transfected with an inducible Jak2 WT expression construct. inducible Jak2 Y119E expression construct. aim we used a human fibroblast cell line
# From this line we generated doxycycline inducible Jak2 clones, expressing either wild type Jak2 or Y119E mutant Jak2 whose FERM domain does […]
# To establish a sensitive test, sufficient […]
# control the system, we used fos-GHRct mutated in box-1 or the cell line expressing mutant (Y119E) Jak2. The box-1 motif is the binding site of Jak2 in GHR; mutation of this motif (all four proline into alanine) is known to reduce the binding between GHR and Jak2. In the primary screen we measured 4 different signals: fos-GHRct (anti-GHR), tyrosine phosphorylated fos-GHRct (anti-pY), tyrosine phosphorylated Jak2 (anti-pY or anti- […]
# inhibition of either fos-GHRct stabilization or fos-GHRct synthesis, are considered positive.
# Immunoblots are not appropriate for high throughput screening. Using fos-GHRct-transfected cells as in Fig. S3 and pY-specific primary antibodies, we developed a high throughput screening assay based on pY-fos-GHRct immune fluorescent detection in 384-well plates with automated microscopy. […]
# panel). From left to right: Dapi staining to visualize nuclei, fos-GHRct staining: GHRtails are detected by […]
# [1] = Homo sapiens, Figure 4, ranked according inhibitory effects on GHR signaling and/or cell proliferation, read-out: IC50
# [2] = Homo sapiens, Table_2.xlsx, second analogue set, read-out: GHR INHIBITORS, BM#, IC50
SMILES,IC50 [1] [nM],IC50 [2] [nM],phosphorylation of STAT5 (pSTAT5),phosphorylation of fos-pGHRct (pY),phosphorylation of the active site of Jak2 (p1007/1008),other results
"N#CC[C@H](C1CCCC1)n1cc(-c2ncnc3[nH]ccc23)cn1 [Ruxolitinib, reference compound]",,,,,,pY signal at plateau of dose-response: close to zero
Cc1nc(N)nc(N)c1/C=C/C1(c2ccc(C(F)(F)F)cc2)CC1 [BM001],20 to 30,,,,,"EC50 (Homo sapiens, Table_2.xlsx, cell prints EC50, read-out: GHR INHIBITORS, BM#, EC50): 20 to 30 nM"
COc1cc(CN(C)c2ccc3nc(N)nc(N)c3c2)cc(OC)c1OC [BM003],,50,,,,
Cc1c(-c2cccc(C#N)c2)ccc2nc(N)nc(N)c12 [BM002],,50,,,,
CCOc1cccc2nc(N)nc(N)c12 [BM012],,,lowered,lowered,lowered,"IC50 (Homo sapiens, Table_1.xlsx, first analogue set, read-out: GHR INHIBITORS, BM#, (IC50)): 900 nM"
Cc1nc(N)nc(N)c1C#CC1(c2ccc(Cl)cc2)CC1 [BM004],80,,lowered,lowered,lowered,"IC50 (Homo sapiens, primary screen protocol, 20 h, read-out: IC50, dose-response on pY levels (fos-GHRct, pJak2, pSTAT5)): ~200 nM; IC50, dose-response on pY levels (fos-GHRct, pJak2, pSTAT5) (primary screen protocol, 20 h): comparable to that of Ruxolitinib"

# — publication PMC9365994, “Small molecules to regulate the GH/IGF1 axis by inhibiting the growth hormone receptor synthesis” (Frontiers in Endocrinology, 2022)
